These results are taken from US8501950B2, “N-cyanoalkylanthranilamides as insecticides” (Syngenta Crop Protection LLC, priority 2006, dated 2013).

Series [1] deals with Cydia pomonella (Codling Moth). Kind of series: Example B10: activity against Cydia pomonella, sprayed diet cubes. Particulars: 336 h. The series is classed as in vivo. How it is done:
Activity Against Cydia pomonella (Codling Moth)
Standard Cydia diet cubes (1.5 cm width) are pierced with a tooth-pick and are immersed in liquid paraffin (ca. 80° C.). After the paraffin coat has hardened, an aqueous emulsion containing 12.5 ppm of active ingredient is applied using a De Vilbis sprayer (25 ml, 1 bar). After the spray coating has dried, the cubes are put into plastic containers which are then populated with two freshly hatched Cydia pomonella (1st instar). The containers are then closed with a plastic cap. After 14 days incubation at 26° C. and 40-60% relative humidity, the survival rate of the caterpillars as well as their growth regulation is determined.

Series [2] concerns Heliothis virescens (Tobacco Budworm). Kind of series: Example B2: activity against Heliothis virescens, eggs on artificial diet. Particulars: 96 h. The series is classed as in vivo. As for the experimental part: Activity Against Heliothis virescens (Tobacco Budworm)
Eggs (0-24 h old) are placed in 24-well microtiter plate on artificial diet and sprayed with test solutions. After an incubation period of 4 days, samples are checked for egg mortality, larval mortality, and growth inhibition.

Series [3] deals with Spodoptera littoralis (Cotton Leafworm). Kind of series: Example B9: systemic insecticide test for Spodoptera littoralis, maize seedlings at 12.5 ppm. Type of series: in vivo. As for the experimental part:
(§1) Systemic Insecticide Test for Spodoptera littoralis (Cotton Leafworm)
[…] Seedlings are allowed to grow for six days. Subsequently leaves are cut and placed in a Petri dish (5 cm diameter), inoculated with twelve to fifteen 1st instar S. littoralis larvae and incubated for four days in a growth chamber (25° C., 50% r.h., 18:6 L:D photo period). Number of alive insects are counted and percentage of dead calculated. Tests were conducted with one replicate.

The test system of series [4] is Spodoptera littoralis (Egyptian Cotton Leafworm). Kind of series: Example B1: activity against Spodoptera littoralis, sprayed cotton leaf discs, L1 larvae. Type of series: in vivo. Particulars: foliar, 72 h. From the text:
Activity Against Spodoptera littoralis (Egyptian Cotton Leafworm)
Cotton leaf discs are placed on agar in a 24-well microtiter plate and sprayed with test solutions. After drying, the leaf discs are infested with 5 L1 larvae. The samples are checked for mortality, repellent effect, feeding behaviour, and growth inhibition 3 days after treatment (DAT).

The test system of series [5] is Thrips tabaci (Onion Thrips). The series can be described thus: Example B7: activity against Thrips tabaci, sunflower leaf discs. The series is classed as in vivo. To be noted: foliar, 144 h. As for the experimental part:
Activity Against Thrips tabaci (Onion Thrips)
Sunflower leaf discs are placed on agar in a 24-well microtiter plate and sprayed with test solutions. After drying, the leaf discs are infested with a thrips population of mixed ages. After an incubation period of 6 days, samples are checked for mortality and special effects (e.g. phytotoxicity).

In series [6] the test system is Plutella xvlostella (Diamond Back Moth). Kind of series: Example B3: activity against Plutella xylostella, L2 larvae on artificial diet. Type of series: in vivo. Particulars: 120 h. As for the experimental part: Activity Against Plutella xvlostella (Diamond Back Moth)
24-well microtiter plate (MTP) with artificial diet is sprayed with test solutions. After drying, the MTP's are infested with larvae (L2)(10-15 per well). After an incubation period of 5 days, samples are checked for larval mortality, antifeedant and growth inhibition.

For series [7], the system named is Frankliniella occidentalis (Western Flower Thrips). Kind of series: Example B12: activity against Frankliniella occidentalis, sprayed bean plants, comparison with prior art. Type of series: in vivo. Particulars: for inhibition at 12.5 ppm / inhibition at 25 ppm / inhibition at 50 ppm: Frankliniella occidentalis, 288 h, reduction of treated population vs non treated, read-out: Activity (%) after 12 days. How it is done: Activity Against Frankliniella occidentalis (Western Flower Thrips)
Bean plants are treated in a spray chamber with diluted test solutions. After drying they are infested with mixed population. 12 days after the infestation, samples are checked for reduction of treated population and compared to the non treated population.

Series [8] relates to Spodoptera littoralis (Cotton Leafworm). Kind of series: Example B11: systemic insecticide test for Spodoptera littoralis, comparison with prior art. The series is classed as in vivo. To be noted: for mortality at 0.0125 ppm / mortality at 0.05 ppm: Spodoptera littoralis, 120 h, read-out: Mortality (%) after 5 days.
Text: as §1
[…] Seedlings are allowed to grow for six days. […] Number of alive insects are counted and percentage of dead calculated.

Series [9] has as its system Diabrotica balteata (Corn Root Worm). Kind of series: Example B4: activity against Diabrotica balteata, L2 larvae on artificial diet. The series is classed as in vivo. To be noted: 120 h, 5 days incubation, read-out: activity (sentence prints only 'over 80%'). As for the experimental part:
Activity Against Diabrotica balteata (Corn Root Worm)
24-well microtiter plate (MTP) with artificial diet is sprayed with test solutions. After drying, the MTP's are infested with larvae (L2)(6-10 per well). After an incubation period of 5 days, samples are checked for larval mortality, antifeedant and growth inhibition.

The subject of series [10] is Mvzus persicae (Green Peach Aphid). Kind of series: Example B5: activity against Myzus persicae (contact), sunflower leaf discs. Type of series: in vivo. To be noted: foliar, 144 h. As for the experimental part: Activity Against Mvzus persicae (Green Peach Aphid): (Contact)
Sunflower leaf discs are placed on agar in a 24-well microtiter plate and sprayed with test solutions. After drying, the leaf discs are infested with an aphid population of mixed ages. After an incubation period of 6 DAT, samples are checked for mortality and special effects (e.g. phytotoxicity).

Series [11] has as its system Myzus persicae (Green Peach Aphid). Kind of series: Example B6: activity against Myzus persicae (systemic), pea seedling roots in test solution. To be noted: 144 h. Type of series: in vivo. From the text: Activity Against Myzus persicae (Green Peach Aphid): (Systemic)
Roots of pea seedlings, infested with an aphid population of mixed ages, are placed directly in the test solutions. 6 days after introduction, samples are checked for mortality and special effects on the plant.

[12] abbreviates: 200 ppm, 4 days incubation, eggs on artificial diet, read-out: mortality.
Where [13] appears, read: 12.5 ppm in water, systemic via maize seedlings, one replicate, read-out: mortality.
Setting [14] is: 200 ppm, 3 days after treatment, L1 larvae on cotton leaf discs, read-out: mortality.
The mark [15] stands for this setting: 200 ppm, 5 days incubation, L2 larvae, read-out: mortality.

Where two headings read alike, the source gives them in different places.

`Cc1cc(Cl)cc(C(=O)NC(C)(C#N)C2CC2)c1NC(=O)c1cc(OC(F)F)nn1-c1ncccc1Cl` (stereo not shown): the melting point was 197 to 198 °C.

`Cc1cc(I)cc(C(=O)NC(C)(C#N)C2CC2)c1NC(=O)c1cc(OC(F)F)nn1-c1ncccc1Cl` (stereo not shown) yielded a melting point of 203 to 204 °C.

With `Cc1cc(Cl)cc(C(=O)NC(C)(C#N)C2CC2)c1NC(=O)c1cc(C(F)(F)F)nn1-c1ncccc1Cl` (single isomer, unassigned) [Compound T1.1.49a], the mortality at 12.5 ppm in series [1] (12.5 ppm, 14 days incubation at 26° C., read-out: mortality) is over 80%; in series [3] (setting [13]) it was over 80%. Moreover, the mortality at 200 ppm is over 80% in [2] (setting [12]); over 80% in series [4] (setting [14]); over 80% in series [5] (200 ppm, 6 days incubation, mixed ages, read-out: mortality); over 80% in series [6] (setting [15]).

Consider `Cc1cc(Cl)cc(C(=O)NC(C#N)C2CC2)c1NC(=O)c1cc(C(F)(F)F)nn1-c1ncccc1Cl` (stereo not shown) [A.1.346, reference compound], for which, in series [7], the inhibition at 12.5 ppm was 0%, the inhibition at 25 ppm is 0% and the inhibition at 50 ppm came out at 0%. For the same compound, in series [8], the mortality at 0.0125 ppm was determined as 0% and the mortality at 0.05 ppm came to 100%.

Regarding `Cc1cc(Cl)cc(C(=O)NC(C)(C#N)C2CC2)c1NC(=O)c1cc(C(F)(F)F)nn1-c1ncccc1Cl` (stereo not shown) [Compound T1.1.49, 2-(3-chloro-pyridin-2-yl)-5-trifluoromethyl-2H-pyrazole-3-carboxylic acid {4-chloro-2-[(cyano-cyclopropyl-methyl-methyl)-carbamoyl]-6-methyl-phenyl}-amide], the mortality at 12.5 ppm in [1] and in series [3] was over 80% each time. In addition, the inhibition at 12.5 ppm in [7] came out at 75%. Moreover, the inhibition at 25 ppm in series [7] turned out to be 85%. Further, the inhibition at 50 ppm in [7] came to 90%. The “insecticidal action compared with the compound from the state of the art (A.1.346)” value in series [7] (Table B12, 50, 25 and 12.5 ppm) is “substantially better insecticidal action”; in [8] (Table B11) it was “substantially better insecticidal action”. In addition, the mortality at 0.0125 ppm in series [8] was determined as 93%. Also, the mortality at 0.05 ppm in series [8] came to 100%. Besides, the mortality at 200 ppm in series [2], in series [4], in series [5], in series [6] and in series [10] was over 80% each time. Also, the pest or weed control at 200 ppm in series [9] is over 80%.

Turning to `Cc1cc(Cl)cc(C(=O)NC(C)(C#N)C2CC2)c1NC(=O)c1cc(Br)nn1-c1ncccc1Cl` (stereo not shown) [Compound T1.1.50], the mortality at 12.5 ppm in series [11], in [1] and in [3] was over 80% each time. The mortality at 200 ppm in series [2], in series [4], in series [5] and in [6] was over 80% in each case. For the same compound, the pest or weed control at 200 ppm in series [9] is over 80%.

On to `Cc1cc(Cl)cc(C(=O)NC(C)(C#N)C2CC2)c1NC(=O)c1cc(Cl)nn1-c1ncccc1Cl` (stereo not shown) [Compound T1.1.51], for which the mortality at 12.5 ppm in [1] and in series [3] was over 80% each time. In addition, the mortality at 200 ppm in [2], in series [4], in series [5] and in [6] was over 80% throughout. The pest or weed control at 200 ppm in series [9] was over 80%.

`Cc1cc(Cl)cc(C(=O)NC(C)(C#N)C2CC2)c1NC(=O)c1cc(C(F)F)nn1-c1ncccc1Cl` (stereo not shown) [Compound T1.1.52]: the mortality at 12.5 ppm in series [11], in series [1] and in [3] was over 80% each time. Further, the mortality at 200 ppm in [2], in series [4], in series [5], in series [6] and in series [10] was over 80% each time. Further, the pest or weed control at 200 ppm in series [9] was over 80%.

As to `Cc1cc(Cl)cc(C(=O)NC(C)(C#N)C2CC2)c1NC(=O)c1cc(OCC(F)(F)F)nn1-c1ncccc1Cl` (stereo not shown) [Compound T1.1.53], the mortality at 12.5 ppm in series [1] and in series [3] was over 80% throughout. The mortality at 200 ppm in series [2], in series [4] and in series [6] was over 80% in each case. The pest or weed control at 200 ppm in series [9] is over 80%.

With `COc1cc(C(=O)Nc2c(C)cc(Cl)cc2C(=O)NC(C)(C#N)C2CC2)n(-c2ncccc2Cl)n1` (stereo not shown) [Compound T1.1.55], the mortality at 12.5 ppm in [11] and in series [3] was over 80% in each case. Besides, the mortality at 200 ppm in [2], in series [4] and in series [6] was over 80% throughout. The pest or weed control at 200 ppm in series [9] was over 80%.

Take `Cc1cc(I)cc(C(=O)NC(C)(C#N)C2CC2)c1NC(=O)c1cc(C(F)(F)F)nn1-c1ncccc1Cl` (stereo not shown) [Compound T1.1.105]: the mortality at 12.5 ppm in series [1] and in series [3] was over 80% in each case. The mortality at 200 ppm in [2], in series [4], in [5], in series [6] and in series [10] was over 80% throughout. Also, the pest or weed control at 200 ppm in series [9] was over 80%.

On to `Cc1cc(I)cc(C(=O)NC(C)(C#N)C2CC2)c1NC(=O)c1cc(Br)nn1-c1ncccc1Cl` (stereo not shown) [Compound T1.1.106], for which the mortality at 200 ppm in series [2], in series [4] and in [6] was over 80% in each case. Further, the mortality at 12.5 ppm in series [3] is over 80%. The pest or weed control at 200 ppm in series [9] was over 80%.

As for `Cc1cc(I)cc(C(=O)NC(C)(C#N)C2CC2)c1NC(=O)c1cc(C(F)F)nn1-c1ncccc1Cl` (stereo not shown) [Compound T1.1.108], the mortality at 200 ppm in series [2], in [4], in series [5] and in [6] was over 80% each time. The pest or weed control at 200 ppm in [9] is over 80%.

As for `COc1cc(C(=O)Nc2c(C)cc(I)cc2C(=O)NC(C)(C#N)C2CC2)n(-c2ncccc2Cl)n1` (stereo not shown) [Compound T1.1.111], the mortality at 200 ppm in series [2] (setting [12]), in series [4] (setting [14]) and in [6] (setting [15]) was over 80% throughout. In addition, the mortality at 12.5 ppm in series [3] (setting [13]) was over 80%.

In the case of `Cc1cc(Cl)cc(C(=O)NC(C)(C#N)C2CCC2)c1NC(=O)c1cc(C(F)(F)F)nn1-c1ncccc1Cl` (stereo not shown) [Compound T2.1.49], the mortality at 12.5 ppm in series [11] is over 80%. For the same compound, the mortality at 200 ppm in series [2], in series [4] and in [6] was over 80% each time. Besides, the pest or weed control at 200 ppm in [9] is over 80%.
